Laboratory results reported in patent US20200123142A1, “Substituted Cyclohexylamine Compounds” (EPIZYME, INC., priority 2018, published 2020).

Target: T1, SMYD3 (Homo sapiens, UniProt Q9H7B4)
T1 construct: Expressed full-length human His-tagged SMYD3 protein was purified from cell paste; His6 (cleaved yes); SUMO (with TEV site) (cleaved yes); made in house; host or cells: E. coli BL21 codonplus RIL
T1 sequence (Q9H7B4 1-428): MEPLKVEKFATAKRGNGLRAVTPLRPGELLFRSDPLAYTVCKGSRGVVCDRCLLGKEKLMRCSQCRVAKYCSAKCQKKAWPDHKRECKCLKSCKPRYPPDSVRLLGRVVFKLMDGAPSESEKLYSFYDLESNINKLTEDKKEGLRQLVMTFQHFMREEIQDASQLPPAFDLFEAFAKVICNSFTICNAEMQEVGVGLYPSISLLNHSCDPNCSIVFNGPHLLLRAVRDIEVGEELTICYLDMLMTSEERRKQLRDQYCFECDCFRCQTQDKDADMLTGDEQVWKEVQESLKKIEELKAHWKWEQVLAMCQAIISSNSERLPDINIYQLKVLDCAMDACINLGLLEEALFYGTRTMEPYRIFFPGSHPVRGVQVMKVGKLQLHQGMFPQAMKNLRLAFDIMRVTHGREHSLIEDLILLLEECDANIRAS
Assay: SMYD3 Biochemical Assay (SMYD3 enzyme assay on MEKK2 protein substrate, 3H-SAM, scintillation proximity assay)
Details: read-out: SMYD3 Biochem IC50 (uM)*
From the text: S-adenosylmethionine (SAM), S-adenosylhomocysteine (SAH), Tris, Tween20, dimethylsulfoxide (DMSO), bovine skin gelatin (BSG), and Tris(2-carboxyethyl)phosphine hydrochloride solution (TCEP) were purchased from Sigma-Aldrich at the highest level of purity possible. ^3H-SAM was purchase from American Radiolabeled Chemicals with a specific activity of 80 Ci/mmol.
This protein was expressed in High Five insect cells and purified to >85% purity. Protein identity was confirmed by MS/MS analysis after proteolytic digestion. The protein sequence used was:
Full-length human SMYD3 isoform 1 (BAB86333) was inserted into a modified pET21b plasmid containing a His6 tag and TEV and SUMO cleavage sites.
Transformed cells were grown and selected on LB agar with 100 μg/mL ampicillin and 17 μg/mL chloramphenicol at 37° C. overnight. A single clone was used to inoculate 200 mL of LB medium with 100 μg/mL ampicillin and 17 μg/mL chloramphenicol and incubated at 37° C. on an orbital shaker at 180 rpm. […] Once OD600 reached about 0.4, IPTG was added to a final concentration of 0.1 mM and the cells were grown overnight at 15° C. and 160 rpm. Cells were harvested by centrifugation at 8000 rpm, for 4 minutes at 4° C. and stored at −80° C. for purification. […]

IC50: 0.883 µM
SMILES: NCCC(=O)N(CCN)[C@H]1CC[C@H](NC(=O)c2cc(C3CC3)on2)CC1 [compound 35, N-((1r,4r)-4-(3-amino-N-(2-aminoethyl)pro-panamido)cyclo-hexyl)-5-cyclo-propylisoxazole-3-carboxamide]
